Assay results published in patent publication US20070104811A1, “Pharmaceutical composition useful for the treatment of prostate cancer” (priority 2005, published 2007).

What was measured:
[1] = tested on: neonatal skeletal muscle cell; assay: Cell viability of control cells: neonatal skeletal muscle cell; assay type: cell-based, rat; conditions: 100 μg/ml M. koenigii + 100 μg/ml T. terrestris, total 200 μg/ml; 96 h
Procedure: The skeletal muscles from 2-day-old neonatal rat were isolated by method described previously by William E Russell (1997) with modifications. Briefly, Soleus muscle were dissected, minced and digested with 0.2% Type II Collagenase and 0.05% trypsin in Phosphate buffered Saline (PBS) pH 7.4, 0.15M NaCl. The dispersed skeletal muscle cells were centrifuged (1000 g, 10 minutes) washed and resuspended in Phosphate buffered Saline (PBS) with 1% antibiotic-antimycotic. Cells were preincubated for 30 minutes at 37° C., 95% air/5%CO2. The floating muscle cells were plated on collagen coated T-25 flaks in Dulbecco's modified Eagle Medium enriched with 10% Fetal. Bovine Serum and 1% antibiotic-antimycotic
Viability of PC-3 after treatment as at the indicated times was determined by MTT assay -Cell titre 96 AQoueus One solution Cell Proliferation Assay (Promega, Corp. Madison, Wis.) as per manufacturer's protocol. Briefly, 10,000 cells were plated in triplicate in 96 well plates and incubated for 12 hours in complete media. Compound MK-3 was added as indicated on replacing them to fresh complete media and incubated upto 96 hours for varied time periods. 20 μl per well of cell titre 96 AQoueus One solution reagent. […] Absorbance was recorded at 490 nm with 96 well plate readers. Reference wavelength of 630 nm was used to reduce background contributed by non-specific absorbance due to cell debris.

hepatocyte = assay: Cell viability of control cells: neonatal hepatocyte; assay type: cell-based, rat; conditions: 100 μg/ml M. koenigii + 100 μg/ml T. terrestris, total 200 μg/ml; 96 h
Procedure: The hepatocytes from 2-day-old neonatal rat were isolated by method described previously by William E Russell (1997) with modifications. Briefly, the livers were perfused through the portal vein with a calcium-free solution consisting of 150 mM NaCl, 2.8 mM KCl, 5.5 mM glucose, and 25 mM HEPES (pH 7.6) for 10 min, followed by mincing and digestion in DMEM containing 0.05% collagenase type IV for 30 minutes. The cells were centrifuged (2000 g, 10 minutes) and dispersed in DMEM enriched with 10% fetal Bovine Serum, 1% antibiotic-antimycotic.
(§1) Viability of PC-3 after treatment as at the indicated times was determined by MTT assay -Cell titre 96 AQoueus One solution Cell Proliferation Assay (Promega, Corp. Madison, Wis.) as per manufacturer's protocol. Briefly, 10,000 cells were plated in triplicate in 96 well plates and incubated for 12 hours in complete media. Compound MK-3 was added as indicated on replacing them to fresh complete media and incubated upto 96 hours for varied time periods. 20 μl per well of cell titre 96 AQoueus One solution reagent. Incubate the plate for 1-4 hours at 37° C. and humidified 5% CO2 atmosphere. Absorbance was recorded at 490 nm with 96 well plate readers. Reference wavelength of 630 nm was used to reduce background contributed by non-specific absorbance due to cell debris.

cardiomyocyte = assay: Cell viability of control cells: neonatal cardiomyocyte; assay type: cell-based, rat; conditions: 100 μg/ml M. koenigii + 100 μg/ml T. terrestris, total 200 μg/ml; 96 h
Procedure: The cardiomyocytes from 2-day-old neonatal rat were isolated by the method previously described by Yoshihiro Kimura (1994) with modifications. Briefly, heart was excised and minced in pre warmed (37° C.) Ads buffer (1.2M NaCl, 198 mM HEPES, 54 mM KCl, 8.3 mM MgSO4, 55.4 mM glucose, 95 mM NaH2PO4), digested in typeII Collagenase 0.05% and Pancreatin in 3-succesive digestions of 15 minutes each. Supernatant was pooled and cells palleted at 2000 g, 10 minutes. Cells were resuspended and plated in collagen coated T-25 flaks in Medium-199 enriched with 10% Fetal Bovine Serum and 1% antibiotic-antimycotic.
as §1

[2] = Acute toxicity as per WHO guidelines, haematological parameters; assay type: in vivo, Mice, Balb/C; conditions: mahanine 2 gm/kg body weight orally once, 15 days after treatment; vehicle control 92
Procedure: (§2) Experiments for acute toxicity are performed as per the guidelines of WHO. Experimental subject: Mice, Balb/C Male, female. 25 gms body weight (approx) 16 mice were divided into 2 groups 8 animals were received the dosage of @2 gm/kg body weight of combined extract. Equal volume of the vehicle (DMSO) were given to 8 animals wherein dose administered orally once and then animals sacrificed and haematological parameters checked 15 days after treatment.
as §2, with “compound” for “dosage of”, “weight.” for “weight of combined extract.”, “haematological and biochemical” for “haematological”

mahanine
toxic effects / cell death [1]: no sign of cell death
toxic effects / cell death (hepatocyte): no sign of cell death
toxic effects / cell death (cardiomyocyte): no sign of cell death
WBC [2]: 89
